Laboratory results: PubChem BioAssay AID330 (DTP/NCI, 2004)
Inconclusive results and toxic doses are left out. The calls were made as follows: active = survival T/C of 150% or more; inactive = T/C below 125% in these data.

Test system: P388 leukemia ip, CD2F1 mice, survival T/C
Test: NCI In Vivo Anticancer Drug Screen. Data for tumor model P388 Leukemia (intraperitoneal) in CD2F1 (CDF1) mice
Conditions: endpoint: median survival time, higher = longer survival
Summary of the method: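 Mice carrying the transplanted tumor received test compound or vehicle. Survival was recorded in each group, and the value is the treated-group measurement divided by that of the vehicle-treated control group.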

[1] = dose: 12.5 mg/kg/injection, schedule: Q01DX009 (ip), vehicle: saline with Tween-80
[2] = dose: 25.0 mg/kg/injection, schedule: Q01DX009 (ip), vehicle: saline with Tween-80
[3] = dose: 50.0 mg/kg/injection, schedule: Q01DX009 (ip), vehicle: saline with Tween-80
[4] = dose: 60.0 mg/kg/injection, schedule: Q01DX005 (ip), vehicle: Klucel (hydroxypropylcellulose) (HPC)
[5] = dose: 120.0 mg/kg/injection, schedule: Q01DX005 (ip), vehicle: Klucel (hydroxypropylcellulose) (HPC)
[6] = dose: 240.0 mg/kg/injection, schedule: Q01DX005 (ip), vehicle: Klucel (hydroxypropylcellulose) (HPC)

Measured: T/C

Clc1ccc(C(c2ccccc2Cl)C(Cl)Cl)cc1 (stereo unspecified)
inactive: dose: 8.0 mg/kg/injection, schedule: Q03HX024 (ip), vehicle: saline 105 % of control | dose: 16.0 mg/kg/injection, schedule: Q03HX008 (ip), vehicle: saline 100 % of control | dose: 16.0 mg/kg/injection, schedule: Q03HX016 (ip), vehicle: saline 100 % of control | dose: 16.0 mg/kg/injection, schedule: Q03HX024 (ip), vehicle: saline 100 % of control | dose: 32.0 mg/kg/injection, schedule: Q03HX008 (ip), vehicle: saline 100 % of control | dose: 32.0 mg/kg/injection, schedule: Q03HX016 (ip), vehicle: saline 100 % of control | dose: 32.0 mg/kg/injection, schedule: Q03HX024 (ip), vehicle: saline 100 % of control | dose: 64.0 mg/kg/injection, schedule: Q01DX009 (ip), vehicle: saline 90 % of control | dose: 64.0 mg/kg/injection, schedule: Q03HX008 (ip), vehicle: saline 100 % of control | dose: 64.0 mg/kg/injection, schedule: Q03HX016 (ip), vehicle: saline 115 % of control | dose: 64.0 mg/kg/injection, schedule: Q03HX024 (ip), vehicle: saline 110 % of control | dose: 64.0 mg/kg/injection, schedule: Q04DX003 (ip), vehicle: saline 104 % of control | dose: 128.0 mg/kg/injection, schedule: Q01DX001 (ip), vehicle: saline 109 % of control | dose: 128.0 mg/kg/injection, schedule: Q01DX009 (ip), vehicle: saline 90 % of control | dose: 128.0 mg/kg/injection, schedule: Q03HX008 (ip), vehicle: saline 100 % of control | dose: 128.0 mg/kg/injection, schedule: Q03HX016 (ip), vehicle: saline 110 % of control | dose: 128.0 mg/kg/injection, schedule: Q03HX024 (ip), vehicle: saline 100 % of control | dose: 128.0 mg/kg/injection, schedule: Q04DX003 (ip), vehicle: saline 100 % of control | dose: 128.0 mg/kg/injection, schedule: Q08DX002 (ip), vehicle: saline 100 % of control | dose: 256.0 mg/kg/injection, schedule: Q01DX001 (ip), vehicle: saline 100 % of control | dose: 256.0 mg/kg/injection, schedule: Q01DX001 (oral), vehicle: saline 104 % of control | dose: 256.0 mg/kg/injection, schedule: Q01DX009 (ip), vehicle: saline 95 % of control | dose: 256.0 mg/kg/injection, schedule: Q01DX009 (oral), vehicle: saline 104 % of control | dose: 256.0 mg/kg/injection, schedule: Q04DX003 (ip), vehicle: saline 100 % of control | dose: 256.0 mg/kg/injection, schedule: Q04DX003 (oral), vehicle: saline 100 % of control | dose: 256.0 mg/kg/injection, schedule: Q08DX002 (ip), vehicle: saline 90 % of control | dose: 512.0 mg/kg/injection, schedule: Q01DX001 (ip), vehicle: saline 109 % of control | dose: 512.0 mg/kg/injection, schedule: Q01DX001 (oral), vehicle: saline 100 % of control | dose: 512.0 mg/kg/injection, schedule: Q01DX009 (ip), vehicle: saline 86 % of control | dose: 512.0 mg/kg/injection, schedule: Q01DX009 (oral), vehicle: saline 109 % of control | dose: 512.0 mg/kg/injection, schedule: Q04DX003 (ip), vehicle: saline 90 % of control | dose: 512.0 mg/kg/injection, schedule: Q04DX003 (oral), vehicle: saline 100 % of control | dose: 512.0 mg/kg/injection, schedule: Q08DX002 (ip), vehicle: saline 100 % of control | dose: 1024.0 mg/kg/injection, schedule: Q01DX001 (ip), vehicle: saline 100 % of control | dose: 1024.0 mg/kg/injection, schedule: Q01DX001 (oral), vehicle: saline 100 % of control | dose: 1024.0 mg/kg/injection, schedule: Q01DX009 (oral), vehicle: saline 100 % of control | dose: 1024.0 mg/kg/injection, schedule: Q04DX003 (ip), vehicle: saline 90 % of control | dose: 1024.0 mg/kg/injection, schedule: Q04DX003 (oral), vehicle: saline 100 % of control | dose: 1024.0 mg/kg/injection, schedule: Q08DX002 (ip), vehicle: saline 104 % of control | dose: 2048.0 mg/kg/injection, schedule: Q01DX001 (oral), vehicle: saline 109 % of control | dose: 2048.0 mg/kg/injection, schedule: Q01DX009 (oral), vehicle: saline 100 % of control | dose: 2048.0 mg/kg/injection, schedule: Q04DX003 (oral), vehicle: saline 100 % of control

O=C(CC(=O)c1ccccc1F)Nc1ccc([N+](=O)[O-])cc1
inactive: [1] 100 % of control | [2] 100 % of control | [3] 95 % of control | dose: 100.0 mg/kg/injection, schedule: Q04DX003 (ip), vehicle: saline with Tween-80 90 % of control | dose: 200.0 mg/kg/injection, schedule: Q04DX003 (ip), vehicle: saline with Tween-80 95 % of control | dose: 400.0 mg/kg/injection, schedule: Q04DX003 (ip), vehicle: saline with Tween-80 100 % of control

COc1nc2[nH]ccc2c(=O)[nH]1
inactive: dose: 60.0 mg/kg/injection, schedule: Q01DX005 (ip), vehicle: saline with Tween-80 94 % of control | dose: 120.0 mg/kg/injection, schedule: Q01DX005 (ip), vehicle: saline with Tween-80 86 % of control | dose: 240.0 mg/kg/injection, schedule: Q01DX005 (ip), vehicle: saline with Tween-80 96 % of control

O=C(O)C(Cl)(c1ccccc1)C(Cl)c1ccccc1 (stereo unspecified)
inactive: [3] 104 % of control | dose: 100.0 mg/kg/injection, schedule: Q01DX009 (ip), vehicle: saline with Tween-80 95 % of control | dose: 200.0 mg/kg/injection, schedule: Q01DX009 (ip), vehicle: saline with Tween-80 100 % of control

CCOP(=O)(CS(=O)(=O)CCC1(C)NC(=O)NC1=O)OCC (stereo unspecified)
inactive: dose: 60.0 mg/kg/injection, schedule: Q01DX005 (ip), vehicle: saline 101 % of control | dose: 120.0 mg/kg/injection, schedule: Q01DX005 (ip), vehicle: saline 103 % of control | dose: 240.0 mg/kg/injection, schedule: Q01DX005 (ip), vehicle: saline 103 % of control

CN(C)c1ccc(C(c2cc3c(cc2O)OCO3)N2CCCC2)cc1 (stereo unspecified)
inactive: [4] 108 % of control | [5] 109 % of control | [6] 109 % of control

N#Cc1cccc(CN2CCCNCC2)c1
inactive: dose: 6.25 mg/kg/injection, schedule: Q01DX009 (ip), vehicle: water 94 % of control | dose: 12.5 mg/kg/injection, schedule: Q01DX009 (ip), vehicle: water 94 % of control | dose: 25.0 mg/kg/injection, schedule: Q01DX009 (ip), vehicle: water 103 % of control | dose: 50.0 mg/kg/injection, schedule: Q01DX009 (ip), vehicle: water 109 % of control | dose: 100.0 mg/kg/injection, schedule: Q01DX009 (ip), vehicle: water 105 % of control

CN(C)c1ccc(C=C2C(=O)N(c3ccccc3)C(=S)N(c3ccccc3)C2=O)cc1
inactive: [4] 90 % of control | [5] 92 % of control | [6] 92 % of control

CC[n+]1c(/C=C/c2ccc(N(CCC(=O)O)CCC(=O)O)cc2)sc2ccccc21
inactive: dose: 12.5 mg/kg/injection, schedule: Q04DX003 (ip), vehicle: saline with Tween-80 99 % of control | dose: 25.0 mg/kg/injection, schedule: Q04DX003 (ip), vehicle: saline with Tween-80 100 % of control | dose: 50.0 mg/kg/injection, schedule: Q04DX003 (ip), vehicle: saline with Tween-80 101 % of control

COc1ccc(Br)c(C(=O)N2CCc3ccccc32)c1OS(=O)(=O)c1ccc(C)cc1
inactive: dose: 25.0 mg/kg/injection, schedule: Q01DX009 (ip), vehicle: distilled water + Tween-80 98 % of control | dose: 50.0 mg/kg/injection, schedule: Q01DX009 (ip), vehicle: distilled water + Tween-80 100 % of control | dose: 100.0 mg/kg/injection, schedule: Q01DX009 (ip), vehicle: distilled water + Tween-80 91 % of control | dose: 200.0 mg/kg/injection, schedule: Q01DX009 (ip), vehicle: distilled water + Tween-80 89 % of control | dose: 400.0 mg/kg/injection, schedule: Q01DX009 (ip), vehicle: distilled water + Tween-80 95 % of control

Cc1nc(N)nc2ccccc12
inactive: dose: 15.0 mg/kg/injection, schedule: Q01DX005 (ip), vehicle: Klucel (hydroxypropylcellulose) (HPC) 100 % of control | dose: 30.0 mg/kg/injection, schedule: Q01DX005 (ip), vehicle: Klucel (hydroxypropylcellulose) (HPC) 100 % of control | [4] 99 % of control

CCOC(=O)C[N+]12CCC34c5ccccc5N5C(=O)CC6OCC=C(C1)C(CC32)C6C54 (stereo unspecified)
inactive: [1] 113 % of control | [2] 106 % of control
